Laboratory results from PubChem BioAssay (NCI).
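Cells were grown in 96-well plates and exposed to each compound for 48 hours at five concentrations; endpoints were interpolated linearly between bracketing concentrations, or set to the highest concentration if not reached. GI50 marks 50% less growth. TGI denotes the concentration required for complete inhibition of growth.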

Tests used:
Assay in all cases: NCI tumour cell line growth inhibition, 48 h
MOLT-4 leukemia = test system: MOLT-4 leukemia
HOP-62 NSCLC = test system: HOP-62 NSCLC
A549 NSCLC = test system: A549 NSCLC
M14 melanoma = test system: M14 melanoma
CAKI-1 renal = test system: CAKI-1 renal
DU-145 prostate = test system: DU-145 prostate
NCI-H226 lung = test system: NCI-H226 lung
OVCAR-3 ovarian = test system: OVCAR-3 ovarian
SF-268 CNS = test system: SF-268 CNS
SNB-19 CNS = test system: SNB-19 CNS
EKVX NSCLC = test system: EKVX NSCLC
MDA-MB-435 = test system: MDA-MB-435
HT29 colon = test system: HT29 colon
OVCAR-5 ovarian = test system: OVCAR-5 ovarian
BT-549 breast = test system: BT-549 breast
MDA-MB-468 breast = test system: MDA-MB-468 breast
SF-539 CNS = test system: SF-539 CNS
HCT-116 colon = test system: HCT-116 colon
COLO 205 colon = test system: COLO 205 colon
NCI-H460 lung = test system: NCI-H460 lung
HL-60(TB) leukemia = test system: HL-60(TB) leukemia
A498 renal = test system: A498 renal
RPMI-8226 leukemia = test system: RPMI-8226 leukemia
MCF7 breast = test system: MCF7 breast
SW-620 colon = test system: SW-620 colon
LOX IMVI melanoma = test system: LOX IMVI melanoma
SK-MEL-28 melanoma = test system: SK-MEL-28 melanoma
OVCAR-8 ovarian = test system: OVCAR-8 ovarian
SF-295 CNS = test system: SF-295 CNS
UO-31 renal = test system: UO-31 renal
SK-MEL-2 melanoma = test system: SK-MEL-2 melanoma
HCT-15 colon = test system: HCT-15 colon
UACC-257 melanoma = test system: UACC-257 melanoma
UACC-62 melanoma = test system: UACC-62 melanoma
HCC-2998 colon = test system: HCC-2998 colon
KM12 colon = test system: KM12 colon
786-0 renal = test system: 786-0 renal
MALME-3M melanoma = test system: MALME-3M melanoma
NCI-H522 lung = test system: NCI-H522 lung
TK-10 renal = test system: TK-10 renal
ACHN renal = test system: ACHN renal
NCI/ADR-RES ovarian = test system: NCI/ADR-RES ovarian
IGROV1 ovarian = test system: IGROV1 ovarian
SNB-75 CNS = test system: SNB-75 CNS
MDA-MB-231 breast = test system: MDA-MB-231 breast
SK-MEL-5 melanoma = test system: SK-MEL-5 melanoma
NCI-H23 lung = test system: NCI-H23 lung
T-47D breast = test system: T-47D breast
HOP-92 NSCLC = test system: HOP-92 NSCLC
SN12C renal = test system: SN12C renal
SR leukemia = test system: SR leukemia
U251 CNS = test system: U251 CNS
SK-OV-3 ovarian = test system: SK-OV-3 ovarian
CCRF-CEM leukemia = test system: CCRF-CEM leukemia
K-562 leukemia = test system: K-562 leukemia
HS 578T breast = test system: HS 578T breast
PC-3 prostate = test system: PC-3 prostate
RXF 393 renal = test system: RXF 393 renal
OVCAR-4 ovarian = test system: OVCAR-4 ovarian

In the case of `C[C@@H](Nc1c(C#N)cnc2ccc(-c3cnc4[nH]ncc4c3)cc12)c1ccccc1`, the GI50 (MOLT-4 leukemia) is reported as 1.61 µM, the TGI (MOLT-4 leukemia) is reported as 5.02 µM and the GI50 (HOP-62 NSCLC) is reported as 3.03 µM. It also gave a TGI (HOP-62 NSCLC) of 19 µM, a GI50 (A549 NSCLC) of 2.53 µM and a TGI (A549 NSCLC) of 10.9 µM. It also gave a GI50 (M14 melanoma) of 2.43 µM, a TGI (M14 melanoma) of 19.1 µM and a GI50 (CAKI-1 renal) of 2.78 µM. For the same compound, the TGI (CAKI-1 renal) was 10.9 µM, the GI50 (DU-145 prostate) was 2.76 µM and the TGI (DU-145 prostate) was 25.2 µM. For the same compound, the GI50 (NCI-H226 lung) was 2.85 µM, the TGI (NCI-H226 lung) was 14.3 µM and the GI50 (OVCAR-3 ovarian) was 2.14 µM. It also gave a TGI (OVCAR-3 ovarian) of 11.9 µM, a GI50 (SF-268 CNS) of 3.56 µM and a TGI (SF-268 CNS) of 34 µM. The GI50 (SNB-19 CNS) was 2.48 µM, the TGI (SNB-19 CNS) was 28 µM and the GI50 (EKVX NSCLC) was 0.827 µM. It also gave a TGI (EKVX NSCLC) of 4.45 µM, a GI50 (MDA-MB-435) of 3.5 µM and a TGI (MDA-MB-435) of 19.5 µM. The GI50 (HT29 colon) was 14.5 µM, the TGI (HT29 colon) was 35.2 µM and the GI50 (OVCAR-5 ovarian) was 3.89 µM. For the same compound, the TGI (OVCAR-5 ovarian) was 18.3 µM, the GI50 (BT-549 breast) was 0.353 µM and the TGI (BT-549 breast) was 4.83 µM. For the same compound, the GI50 (MDA-MB-468 breast) was 1.16 µM, the TGI (MDA-MB-468 breast) was 2.67 µM and the GI50 (SF-539 CNS) was 2.59 µM. For the same compound, the TGI (SF-539 CNS) was 12.2 µM, the GI50 (HCT-116 colon) was 3.77 µM and the TGI (HCT-116 colon) was 16.1 µM. For the same compound, the GI50 (COLO 205 colon) was 16.3 µM, the TGI (COLO 205 colon) was 37 µM and the GI50 (NCI-H460 lung) was 2.66 µM. The TGI (NCI-H460 lung) was 13.2 µM, the GI50 (HL-60(TB) leukemia) was 1.74 µM and the TGI (HL-60(TB) leukemia) was 7.98 µM. The GI50 (A498 renal) was 2.55 µM, the TGI (A498 renal) was 6.8 µM and the GI50 (RPMI-8226 leukemia) was 2.04 µM. The TGI (RPMI-8226 leukemia) was 11.3 µM, the GI50 (MCF7 breast) was 1.87 µM and the TGI (MCF7 breast) was 7.81 µM. The GI50 (SW-620 colon) was 4.65 µM, the TGI (SW-620 colon) was 23.2 µM and the GI50 (LOX IMVI melanoma) was 3.12 µM. The TGI (LOX IMVI melanoma) was 16.7 µM, the GI50 (SK-MEL-28 melanoma) was 2.06 µM and the TGI (SK-MEL-28 melanoma) was 14.4 µM. For the same compound, the GI50 (OVCAR-8 ovarian) was 2.33 µM, the TGI (OVCAR-8 ovarian) was 23.5 µM and the GI50 (SF-295 CNS) was 2.11 µM. For the same compound, the TGI (SF-295 CNS) was 10.5 µM, the GI50 (UO-31 renal) was 0.468 µM and the TGI (UO-31 renal) was 10.8 µM. The GI50 (SK-MEL-2 melanoma) was 3.23 µM, the TGI (SK-MEL-2 melanoma) was 16 µM and the GI50 (HCT-15 colon) was 3.17 µM. The TGI (HCT-15 colon) was 16.4 µM, the GI50 (UACC-257 melanoma) was 3.24 µM and the TGI (UACC-257 melanoma) was 16.3 µM. It also gave a GI50 (UACC-62 melanoma) of 1.94 µM, a TGI (UACC-62 melanoma) of 5.86 µM and a GI50 (HCC-2998 colon) of 4.69 µM. The TGI (HCC-2998 colon) was 26 µM, the GI50 (KM12 colon) was 4.2 µM and the TGI (KM12 colon) was 21.5 µM. It also gave a GI50 (786-0 renal) of 2.74 µM, a TGI (786-0 renal) of 11.3 µM and a GI50 (MALME-3M melanoma) of 1.16 µM. For the same compound, the TGI (MALME-3M melanoma) was 7.27 µM, the GI50 (NCI-H522 lung) was 1.71 µM and the TGI (NCI-H522 lung) was 11.6 µM. For the same compound, the GI50 (TK-10 renal) was 2.96 µM, the TGI (TK-10 renal) was 8.36 µM and the GI50 (ACHN renal) was 0.699 µM. The TGI (ACHN renal) was 11.3 µM, the GI50 (NCI/ADR-RES ovarian) was 3.71 µM and the TGI (NCI/ADR-RES ovarian) was 34.8 µM. For the same compound, the GI50 (IGROV1 ovarian) was 1.91 µM, the TGI (IGROV1 ovarian) was 4.07 µM and the GI50 (SNB-75 CNS) was 1.1 µM. For the same compound, the TGI (SNB-75 CNS) was 5.16 µM, the GI50 (MDA-MB-231 breast) was 2.38 µM and the TGI (MDA-MB-231 breast) was 13.8 µM. It also gave a GI50 (SK-MEL-5 melanoma) of 1.71 µM, a TGI (SK-MEL-5 melanoma) of 5.96 µM and a GI50 (NCI-H23 lung) of 4.31 µM. For the same compound, the TGI (NCI-H23 lung) was 22 µM, the GI50 (T-47D breast) was 2.88 µM and the TGI (T-47D breast) was 8.36 µM. For the same compound, the GI50 (HOP-92 NSCLC) was 1.08 µM, the TGI (HOP-92 NSCLC) was 7.29 µM and the GI50 (SN12C renal) was 1.57 µM. The TGI (SN12C renal) was 12.8 µM, the GI50 (SR leukemia) was 2.23 µM and the TGI (SR leukemia) was 19.7 µM. The GI50 (U251 CNS) was 4.91 µM, the TGI (U251 CNS) was 22.7 µM and the GI50 (SK-OV-3 ovarian) was 2.16 µM. The TGI (SK-OV-3 ovarian) was 7.98 µM, the GI50 (CCRF-CEM leukemia) was 2.46 µM and the TGI (CCRF-CEM leukemia) was over 100 µM. The GI50 (K-562 leukemia) was 4.67 µM, the TGI (K-562 leukemia) was over 100 µM and the GI50 (HS 578T breast) was 1.27 µM. The TGI (HS 578T breast) was 5.37 µM, the GI50 (PC-3 prostate) was 2.58 µM and the TGI (PC-3 prostate) was over 100 µM. It also gave a GI50 (RXF 393 renal) of 1.26 µM, a TGI (RXF 393 renal) of 3.55 µM and a GI50 (OVCAR-4 ovarian) of 3.47 µM. The TGI (OVCAR-4 ovarian) was 18 µM.
